# In patent US8394789B2, “(Dihydro)pyrrolo[2,1-α]isoquinolines” (MSD Oss B.V., priority 2008, dated 2013):
# Target: T1, human FSH receptor (Homo sapiens, UniProt P23945)
# T1 construct: expressed in transfected cells
# T1 sequence (P23945 18-695): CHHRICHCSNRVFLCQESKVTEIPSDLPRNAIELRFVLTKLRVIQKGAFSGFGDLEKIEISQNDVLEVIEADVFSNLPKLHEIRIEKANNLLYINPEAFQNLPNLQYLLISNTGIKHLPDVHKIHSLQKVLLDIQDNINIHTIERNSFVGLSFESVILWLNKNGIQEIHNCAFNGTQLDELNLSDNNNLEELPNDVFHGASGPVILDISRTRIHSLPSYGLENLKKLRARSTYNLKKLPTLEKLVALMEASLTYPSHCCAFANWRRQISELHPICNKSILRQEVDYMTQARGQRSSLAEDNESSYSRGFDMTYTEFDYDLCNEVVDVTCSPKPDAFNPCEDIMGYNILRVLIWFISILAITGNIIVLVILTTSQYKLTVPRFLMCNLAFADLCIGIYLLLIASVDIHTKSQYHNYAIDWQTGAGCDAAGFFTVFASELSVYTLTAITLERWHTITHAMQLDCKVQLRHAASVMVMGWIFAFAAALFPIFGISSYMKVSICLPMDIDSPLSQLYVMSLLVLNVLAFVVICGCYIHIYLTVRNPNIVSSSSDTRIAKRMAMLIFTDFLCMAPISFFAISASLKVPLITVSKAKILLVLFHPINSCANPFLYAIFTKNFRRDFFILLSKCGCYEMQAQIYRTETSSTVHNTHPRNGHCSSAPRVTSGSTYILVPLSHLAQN
# Assay: hFSHRago (CHO luc): agonistic activity at the human FSH receptor expressed in CHO cells, CRE-luciferase reporter
# Assay type: cell-based
# Conditions: CHO cells stably transfected with human FSH receptor and CRE/luciferase reporter; 4 hours of incubation
row,SMILES,EC50 [µM]
1,"COc1cc2c(cc1OCC1CC1)-c1c(-c3cccs3)cc(C(=O)N3CCCN(C(C)=O)CC3)n1CC2 [Example 77, 1-[4-(9-Cyclopropylmethoxy-8-methoxy-1-thiophen-2-yl-5,6-dihydro-pyrrolo[2,1-α]iso-quinoline-3-carbonyl)-perhydro-1,4-diazepin-1-yl]-ethanone]",0.0576
2,"COc1cc2c(cc1OC(C)C)-c1c(-c3cccs3)cc(C(=O)N(C)N(C)C)n1CC2 [Example 31, 9-Isopropoxy-8-methoxy-1-thiophen-2-yl-5,6-dihydro-pyrrolo[2,1-α]isoquinoline-3-carboxylic acid trimethylhydrazide]",0.241
3,"COc1cc2ccn3c(C(=O)N(C)C(C)(C)C)cc(-c4cccs4)c3c2cc1OCCO [Example 36, 9-(2-Hydroxy-ethoxy)-8-methoxy-1-thiophen-2-yl-pyrrolo[2,1-α]isoquinoline-3-carboxylic acid tert-butyl-methyl-amide]",0.0025
4,"COc1cc2c(cc1OC(C)C)-c1c(-c3cccs3)cc(C(=O)N3CCCN(C(=O)C4(SC)CCC4)CC3)n1CC2 [Example 9, (9-Isopropoxy-8-methoxy-1-thiophen-2-yl-5,6-dihydro-pyrrolo[2,1-α]isoquinolin-3-yl)-[4-(1-methylsulfanyl-cyclobutanecarbonyl)-[1,4]diazepan-1-yl]-methanone]",0.0164
5,"COc1cc2c(cc1OCCS(C)(=O)=O)-c1c(-c3cccs3)cc(C(=O)N(C)C(C)(C)C)n1CC2 [Example 72, 9-(2-Methanesulfonyl-ethoxy)-8-methoxy-1-thiophen-2-yl-5,6-dihydro-pyrrolo[2,1-α]isoquinoline-3-carboxylic acid tert-butyl-methyl-amide]",0.0169
6,"CN(C(=O)c1cc(-c2cccs2)c2n1CCc1ccc(N3CCOC3=O)cc1-2)C(C)(C)C [Example 89, 9-(2-Oxo-oxazolidin-3-yl)-1-thiophen-2-yl-5,6-dihydro-pyrrolo[2,1-α]isoquinoline-3-carboxylic acid tert-butyl-methyl-amide]",0.245
7,"COc1cc2c(cc1C(=O)NCCO)-c1c(-c3cccs3)cc(C(=O)N(C)C(C)(C)C)n1CC2 [Example 87, 8-Methoxy-1-thiophen-2-yl-5,6,6a,10a-tetrahydro-pyrrolo[2,1-α]isoquinoline-3,9-dicarboxylic acid 3-(tert-butyl-methyl-amide) 9-[(2-hydroxy-ethyl)-amide]]",0.0239
8,"CNC(=O)COc1cc2c(cc1OC)CCn1c(C(=O)N(C)C(C)(C)C)cc(-c3cccs3)c1-2 [Example 64, 8-Methoxy-9-methylcarbamoylmethoxy-1-thiophen-2-yl-5,6-dihydro-pyrrolo[2,1-α]isoquinoline-3-carboxylic acid tert-butyl-methyl-amide]",0.0031
9,"COc1cc2c(cc1OC(C)C)-c1c(-c3cccs3)cc(C(=O)C(C)N(C)C)n1CC2 (stereo not drawn) [Example 47, 2-Dimethylamino-1-(9-isopropoxy-8-methoxy-1-thiophen-2-yl-5,6-dihydro-pyrrolo[2,1-α]isoquinolin-3-yl)-propan-1-one]",0.149
10,"COc1cc2c(cc1OC(C)C)-c1c(-c3cccs3)cc(C(=O)N3CC4CC(CN(C(=O)CSC)C4)C3)n1CC2 [Example 21, 1-[7-(9-Isopropoxy-8-methoxy-1-thiophen-2-yl-5,6-dihydro-pyrrolo[2,1-α]isoquinoline-3-carbonyl)-3,7-diaza-bicyclo[3.3.1]non-3-yl]-2-methylsulfanyl-ethanone]",0.0778
11,"CCN(C(=O)c1cc(-c2ccsc2)c2n1CCc1cc(Br)c(OC)cc1-2)C(C)C [Example 117, 8-Bromo-9-methoxy-1-thiophen-3-yl-5,6-dihydro-pyrrolo[2,1-α]isoquinoline-3-carboxylic acid ethyl-isopropyl-amide]",1.1
12,"COc1cc2c(cc1OC(C)C)-c1c(-c3nnn[nH]3)cc(C(=O)N(C)C(C)(C)C)n1CC2 [Example 38, 9-Isopropoxy-8-methoxy-1-(1H-tetrazol-5-yl)-5,6-dihydro-pyrrolo[2,1-α]isoquinoline-3-carboxylic acid tert-butyl-methyl-amide]",1.64
13,"CCOc1cc2c(cc1OC)CCn1c(C(=O)N(CC)C(C)C)c(C(C)=O)c(-c3cccs3)c1-2 [Example 112, 2-Acetyl-9-ethoxy-8-methoxy-1-thiophen-2-yl-5,6-dihydro-pyrrolo[2,1-α]isoquinoline-3-carboxylic acid ethyl-isopropyl-amide]",0.2
14,COc1cc2c(cc1OC(C)C)-c1c(-c3cccs3)cc(C(=O)CC(C)(C)C)n1CC2 [Example 45],0.0651
15,"COc1cc2c(cc1OC)-c1c(-c3cccs3)cc(C(=O)N3CCC[C@@H](N(C)C(C)=O)C3)n1CC2 [Example 107, N-[(R)-1-(8,9-Dimethoxy-1-thiophen-2-yl-5,6-dihydro-pyrrolo[2,1-α]isoquinoline-3-carbonyl)-piperidin-3-yl]-N-methyl-acetamide]",0.0309
16,"COc1cc2c(cc1NC(=O)CN(C)C)-c1c(-c3cccs3)cc(C(=O)N(C)C(C)(C)C)n1CC2 [Example 96, 9-(2-Dimethylamino-acetylamino)-8-methoxy-1-thiophen-2-yl-5,6,6 a,10a-tetrahydro-pyrrolo[2,1-α]isoquinoline-3-carboxylic acid tert-butyl-methyl-amide]",0.0028
17,"COc1cc2c(cc1OCC1CCCO1)-c1c(-c3cccs3)cc(C(=O)N3CCCN(C(C)=O)CC3)n1CC2 (stereo not drawn) [Example 78, 1-{4-[8-Methoxy-9-(tetrahydro-furan-2-ylmethoxy)-1-thiophen-2-yl-5,6-dihydro-pyrrolo[2,1-α]isoquinoline-3-carbonyl]-perhydro-1,4-diazepin-1-yl}-ethanone]",0.0962
18,"COc1cc2c(cc1OC(C)C)-c1c(-c3cccs3)cc(C(=O)C3CCCC3)n1CC2 [Example 46, Cyclopentyl-(9-isopropoxy-8-methoxy-1-thiophen-2-yl-5,6,6a,10a-tetrahydro-pyrrolo[2,1-α]isoquinolin-3-yl)-methanone]",0.0782
19,"COc1cc2c(cc1OC(C)C)-c1c(-c3cccs3)cc(C(=O)N3CCCN(C(=O)CSC)CC3)n1CC2 [Example 2, 1-[4-(9-Isopropoxy-8-methoxy-1-thiophen-2-yl-5,6-dihydro-pyrrolo[2,1-α]isoquinoline-3-carbonyl)-[1,4]diazepan-1-yl]-2-methylsulfanyl-ethanone]",0.0005

# Continued, values first:
row,EC50 [µM],SMILES
1,0.0029,"COc1cc2c(cc1OC)-c1c(-c3cccs3)cc(C(=O)N3CCCN(C(=O)C4CCC4)CC3)n1CC2 [Example 111a, (4-Cyclobutanecarbonyl-[1,4]diazepan-1-yl)-(8,9-dimethoxy-1-thiophen-2-yl-5,6-dihydro-pyrrolo[2,1-α]isoquinolin-3-yl)-methanone]"
2,0.0071,"COc1cc2c(cc1OCCN=[N+]=[N-])-c1c(-c3cccs3)cc(C(=O)N(C)C(C)(C)C)n1CC2 [Example 65f, 9-(2-Azido-ethoxy)-8-methoxy-1-thiophen-2-yl-5,6-dihydro-pyrrolo[2,1-α]isoquinoline-3-carboxylic acid tert-butyl-methyl-amide]"
3,0.1,COc1cc2c(cc1OC)-c1c(Br)cc(C(=O)N3CCCN(C(=O)C4CCC4)CC3)n1CC2 [Example 108c]
4,0.279,"CCN(C(=O)c1cc(-c2cccs2)c2n1CCc1cc(OC)c(OC(C)C)cc1-2)[C@@H]1CCCN(C(=O)C2CCC2)C1 [Example 33d, 9-Isopropoxy-8-methoxy-1-thiophen-2-yl-5,6-dihydro-pyrrolo[2,1-α]isoquinoline-3-carboxylic acid ((R)-1-cyclobutanecarbonyl-piperidin-3-yl)-ethyl-amide]"
5,0.251,"COc1cc2c(cc1OC(C)C)-c1c(-c3cccs3)cc(C(=O)N[C@@H]3CCCN(C(C)=O)C3)n1CC2 [Example 34c, 9-Isopropoxy-8-methoxy-1-thiophen-2-yl-5,6-dihydro-pyrrolo[2,1-α]isoquinoline-3-carboxylic acid ((R)-1-acetyl-piperidin-3-yl)-amide]"
6,0.496,"COc1cc2c(cc1OC(C)C)-c1c(-c3cccs3)cc(C(=O)N(C)[C@@H]3CCCN(C(C)=O)C3)n1CC2 [Example 34d, 9-Isopropoxy-8-methoxy-1-thiophen-2-yl-5,6-dihydro-pyrrolo[2,1-α]isoquinoline-3-carboxylic acid ((R)-1-acetyl-piperidin-3-yl)-methyl-amide]"
7,0.252,"COc1cc2c(cc1OC(C)C)-c1c(-c3cccs3)cc(C(=O)N[C@@H]3CCCN(C(=O)C4CCC4)C3)n1CC2 [Example 33c, 9-Isopropoxy-8-methoxy-1-thiophen-2-yl-5,6-dihydro-pyrrolo[2,1-α]isoquinoline-3-carboxylic acid ((R)-1-cyclobutanecarbonyl-piperidin-3-yl)-amide]"
8,0.0052,COc1cc2c(cc1OC(C)C)-c1c(-c3cccs3)cc(C(=O)N3CCCN(C(C)=O)CC3)n1CC2 [Example 12a]
9,0.011,"CCCCN1CCN(C(=O)c2cc(-c3cccs3)c3n2CCc2cc(OC)c(OCC(=O)OCC)cc2-3)CCC1=O [Example 14c, [3-(4-Butyl-5-oxo-[1,4]diazepane-1-carbonyl)-8-methoxy-1-thiophen-2-yl-5,6-dihydro-pyrrolo[2,1-α]isoquinolin-9-yloxy]-acetic acid ethyl ester]"
